Patent publication US20250304623A1, “PEPTIDES FOR INTRACELLULAR DELIVERY” (UNIVERSIDADE DE SANTIAGO DE COMPOSTELA, priority 2022, published 2025)
*: point of attachment. NHNH2 = NN*

Experiments:
Assay type in all cases: cell-based
HCT116 cells = assay: RLuc pDNA delivery, robotic library screening, HCT116
Hela cells = assay: RLuc pDNA delivery, robotic library screening, HeLa
Procedure: Cells were seeded in a 96 well plate the day before the experiment at a concentration of 60,000 cell/mL (100 μL/w) in DMEM+10% FBS+1% Gln-Abt. For robotic library screening, the delivery of pDNA encoding for the expression of Renilla luciferase gene (RLuc, pRL-CMV (Promega, #E2261)) in six different cell lines was performed. […] The mixture was shaken for 30 min at room temperature before the addition to the cells. The cell medium was aspirated, and cells were washed twice with PBS. Finally, 50 μL of the complex's solution were added to the cells and incubated for 4 h. After the incubation, the medium was replaced by 100 μL of fresh DMEM supplemented with 10% FBS. 72 hours after transfection the DMEM was removed, cells were washed once with HBSS and 90 μL of HBSS were added to each well. Cells were incubated at 37° C. for 30 minutes. Then basal luminescence levels were read in a plate reader. Immediately, 10 μL of coelenterazine h in HBSS were added to each well (5 μM final concentration) and cells were incubated at 37° C. for 10 minutes. Finally, the total luminescence measurement of the plates was performed. Amphiphile transfection efficiency was compared and normalized to Lipofectamine® 2000 efficiency (value of 1 in Tables 1-5 and 7; bold numbers). All experiments were done in triplicate.
(§1) Tables 1-7: RLuc (pDNA) or EGFP (mRNA) expression levels were normalized to Lipofectamine reagents (value=1) and expressed as fold-times signal increase. In the case of siRNA, the siRNA treated cells fluorescence was compared with siMOCK control fluorescence, while Cas9-RNP mediated knockout was measured against the fluorescence of untreated cells. In both siRNA and Cas9-RNP, values are expressed as % fluorescence reduction. Amphiphile concentration was 5 μM in all cases. All experiments were performed in triplicate.
Tables 8-13 show the mean (triplicates) luminescent intensity (RLU) measured after the transfection of RLuc pDNA by different amphiphiles at different concentrations in a variety of cell lines. Background luminescence values, accounted by untransfected control cells, were subtracted for processing.

[1] = tested on: Hek293 cells expressing EGFP; assay: EGFP-targeting siRNA delivery (GFP silencing vs siMOCK), Hek293
Procedure: To generate an EGFP expressing HeLa cell line, HeLa cells were transfected with EGFP pDNA (pEGFP-C1, Clontech) and stable transfectants were selected with 400 μg/mL of G-418 (Millipore). Green clones were selected by epifluorescence microscopy and tested for EGFP expression stability through several passages. […] All other EGFP-expressing cell lines were obtained in a similar way from parent non-EGFP-expressing cell lines.
Cells expressing EGFP were seeded in a 96 well plate the day before the experiment at a concentration of 50,000 cell/mL (100 μL/w) in DMEM+10% FBS+1% Gln-Abt. For robotic library screening, the delivery of an EGFP-targeting siRNA (EGFP: enhanced green fluorescent protein, Ambion® Silencer® GFP Positive Control siRNA (siGFP) (AM4626)) in six different cell lines expressing EGFP was performed. […] The mixture was shaken for 30 min at room temperature (rt) before the addition to the cells. The cell medium was aspirated, and cells were washed twice with PBS. Finally, 50 μL of the solution of siRNA/amphiphile complexes were added to the cells and incubated for 4 h. After transfection, the medium was replaced by 100 μL of fresh DMEM supplemented with 10% FBS. The fluorescence knockdown was quantified after 72 h in a plate reader, by comparison with cells transfected with a non-targeting siRNA control (siMOCK, Silencer™ Negative Control No. 1 siRNA (siMOCK) (AM4611)). EGFP knockdown was compared with Lipofectamine® RNAiMAX silencing efficiency (30-60% depending on cell line, defined with a numeric value in the below tables). All experiments were done in triplicate.
as §1
Tables 20-25 show the mean (triplicates) percentage of GFP-silencing, accounted by fluorescence intensity decrease relative to a non-targeting siRNA (siMOCK) control, measured after the transfection of siRNA by different amphiphiles at different concentrations in a variety of cell lines. Background values, accounted by untreated control cells, were subtracted for processing.

Row | Substance | mean luminescent intensity (RLuc pDNA) (HCT116 cells; Dodecanal, 10 μM) [RLU] | mean luminescent intensity (RLuc pDNA) (HCT116 cells; Myristoleyl, 5 μM) [RLU] | mean luminescent intensity (RLuc pDNA) (HCT116 cells; Myristoleyl, 10 μM) [RLU] | mean luminescent intensity (RLuc pDNA) (HCT116 cells; Myristoleyl, 15 μM) [RLU] | mean luminescent intensity (RLuc pDNA) (HCT116 cells; Oleyl, 15 μM) [RLU] | mean luminescent intensity (RLuc pDNA) (HCT116 cells; Palmitoleyl, 5 μM) [RLU] | mean luminescent intensity (RLuc pDNA) (HCT116 cells; Petroselinyl, 5 μM) [RLU] | mean luminescent intensity (RLuc pDNA) (HCT116 cells; Petroselinyl, 10 μM) [RLU] | mean luminescent intensity (RLuc pDNA) (HCT116 cells; Petroselinyl, 15 μM) [RLU] | mean luminescent intensity (RLuc pDNA) (Hela cells; HeLa, Petroselinyl, 10 μM) [RLU] | mean luminescent intensity (RLuc pDNA) (Hela cells; Hela, Myristoleyl, 5 μM) [RLU] | mean luminescent intensity (RLuc pDNA) (Hela cells; Hela, Myristoleyl, 10 μM) [RLU] | mean luminescent intensity (RLuc pDNA) (Hela cells; Hela, Myristoleyl, 15 μM) [RLU] | mean luminescent intensity (RLuc pDNA) (Hela cells; Hela, Palmitoleyl, 5 μM) [RLU] | mean luminescent intensity (RLuc pDNA) (Hela cells; Hela, Palmitoleyl, 10 μM) [RLU] | mean luminescent intensity (RLuc pDNA) (Hela cells; Hela, Palmitoleyl, 15 μM) [RLU] | mean luminescent intensity (RLuc pDNA) (Hela cells; Hela, Petroselinyl, 5 μM) [RLU] | mean luminescent intensity (RLuc pDNA) (Hela cells; Hela, Petroselinyl, 15 μM) [RLU] | percentage of GFP-silencing relative to siMOCK ([1]; Oleyl, 10 μM) [%] | percentage of GFP-silencing relative to siMOCK ([1]; Petroselinyl, 15 μM) [%] | further results
1 | Ac-RRLK*RLK*RRLK*RL-NH2 [Peptide 13.3] | 4741 | 51434 | 32315 | 3431 | 1949 | 142094 | 14318 | 99695 | 36052 | 4639 | 17325 | 2310 | −37 | 18783 | 105810 | 137093 | 657 | 90989 | 2 | 20 | mean luminescent intensity (RLuc pDNA) (HCT116 cells; Dodecanal, 5 μM): 60338 RLU; mean luminescent intensity (RLuc pDNA) (HCT116 cells; Palmitoleyl, 15 μM): 17328 RLU; mean luminescent intensity (RLuc pDNA) (Hela cells; HeLa, Dodecanal, 5 μM): 18306 RLU; mean luminescent intensity (RLuc pDNA) (Hela cells; Hela, Dodecanal, 10 μM): 23656 RLU; mean luminescent intensity (RLuc pDNA) (Hela cells; Hela, Oleyl, 15 μM): 1922 RLU; percentage of GFP-silencing relative to siMOCK ([1]; Dodecanal, 5 μM): 52%; percentage of GFP-silencing relative to siMOCK ([1]; Dodecanal, 10 μM): 44%; percentage of GFP-silencing relative to siMOCK ([1]; Dodecanal, 15 μM): 48%; percentage of GFP-silencing relative to siMOCK ([1]; Myristoleyl, 15 μM): 25%; percentage of GFP-silencing relative to siMOCK ([1]; Palmitoleyl, 5 μM): 42%; percentage of GFP-silencing relative to siMOCK ([1]; Petroselinyl, 5 μM): 18%; percentage of GFP-silencing relative to siMOCK ([1]; Petroselinyl, 10 μM): 0%
2 | Ac-RRHK*RLK*RRLK*RL-NH2 (Ac-RRHK(NHNH2)RLK(NHNH2)RRLK(NHNH2)RL-NH2; not fully specified; printed as Ac-RRHK*RLK*RRLK*RL-NH2; also: K*4,K*7,K*11: native or modified lysine (ε-amide to a linker)) [13(Leu-His)] | – | 76409 | – | 429 | – | 123206 | 116309 | 33439 | 4972 | 2037 | 7216 | 985 | −373 | 7854 | 3026 | – | 5527 | – | 62 | 33 | percentage of GFP-silencing relative to siMOCK ([1]; Dodecanal, 5 μM): 43%; percentage of GFP-silencing relative to siMOCK ([1]; Dodecanal, 10 μM): 18%; percentage of GFP-silencing relative to siMOCK ([1]; Dodecanal, 15 μM): 57%; percentage of GFP-silencing relative to siMOCK ([1]; Myristoleyl, 5 μM): 41%; percentage of GFP-silencing relative to siMOCK ([1]; Myristoleyl, 10 μM): 37%; percentage of GFP-silencing relative to siMOCK ([1]; Myristoleyl, 15 μM): 9%; percentage of GFP-silencing relative to siMOCK ([1]; Oleyl, 15 μM): 21%; percentage of GFP-silencing relative to siMOCK ([1]; Palmitoleyl, 5 μM): 26%; percentage of GFP-silencing relative to siMOCK ([1]; Petroselinyl, 5 μM): 43%; percentage of GFP-silencing relative to siMOCK ([1]; Petroselinyl, 10 μM): 43%
3 | Ac-RRLK*RLLRRLK*RLK*RRL-NH2 (Ac-RRLK(NHNH2)RLLRRLK(NHNH2)RLK(NHNH2)RRL-NH2; not fully specified; printed as Ac-RRLK*RLLRRLK*RLK*RRL-NH2; also: K*4,K*11,K*14: native or modified lysine (ε-amide to a linker)) [Peptide 17.3] | 1102 | 7561 | −331 | – | 1957 | 14037 | 46486 | 11022 | 1651 | 85712 | 309 | −392 | – | 190106 | 246511 | 163602 | 237718 | 7153 | – | 52 | mean luminescent intensity (RLuc pDNA) (HCT116 cells; Oleyl, 10 μM): 1799 RLU; mean luminescent intensity (RLuc pDNA) (HCT116 cells; Palmitoleyl, 10 μM): 5954 RLU; mean luminescent intensity (RLuc pDNA) (HCT116 cells; Palmitoleyl, 15 μM): 892 RLU; mean luminescent intensity (RLuc pDNA) (Hela cells; Hela, Dodecanal, 10 μM): 1535 RLU; mean luminescent intensity (RLuc pDNA) (Hela cells; Hela, Dodecanal, 15 μM): 1856 RLU; mean luminescent intensity (RLuc pDNA) (Hela cells; Hela, Oleyl, 10 μM): 2071 RLU; mean luminescent intensity (RLuc pDNA) (Hela cells; Hela, Oleyl, 15 μM): 2261 RLU; percentage of GFP-silencing relative to siMOCK ([1]; Myristoleyl, 10 μM): 48%; percentage of GFP-silencing relative to siMOCK ([1]; Oleyl, 15 μM): 25%; percentage of GFP-silencing relative to siMOCK ([1]; Palmitoleyl, 10 μM): 37%; percentage of GFP-silencing relative to siMOCK ([1]; Petroselinyl, 5 μM): 9%
4 | Ac-RK*LRK*K*L-NH2 (Ac-RK(NHNH2)LRK(NHNH2)K(NHNH2)L-NH2; not fully specified; printed as Ac-RK*LRK*K*L-NH2; also: K*2,K*5,K*6: native or modified lysine (ε-amide to a linker)) [Peptide 7.3] | 1049 | 1060 | 7147 | 212 | – | – | 62932 | 58529 | 16332 | – | −622 | −417 | −422 | – | – | 19128 | – | 12638 | – | 3 | mean luminescent intensity (RLuc pDNA) (HCT116 cells; Dodecanal, 15 μM): 1534 RLU; mean luminescent intensity (RLuc pDNA) (Hela cells; HeLa, Dodecanal, 5 μM): 5231 RLU; percentage of GFP-silencing relative to siMOCK ([1]; Myristoleyl, 5 μM): 29%; percentage of GFP-silencing relative to siMOCK ([1]; Oleyl, 5 μM): 26%; percentage of GFP-silencing relative to siMOCK ([1]; Palmitoleyl, 15 μM): 19%
5 | Ac-RRLK*RLLRRLK*RL-NH2 (Ac-RRLK(NHNH2)RLLRRLK(NHNH2)RL-NH2; not fully specified; printed as Ac-RRLK*RLLRRLK*RL-NH2; also: K*4,K*11: native or modified lysine (ε-amide to a linker)) [Peptide 13.2] | – | – | – | – | 1593 | – | – | – | – | – | – | – | – | – | – | – | – | – | −7 | – | mean luminescent intensity (RLuc pDNA) (HCT116 cells; Oleyl, 5 μM): 15723 RLU; mean luminescent intensity (RLuc pDNA) (HCT116 cells; Oleyl, 10 μM): 2338 RLU; percentage of GFP-silencing relative to siMOCK ([1]; Oleyl, 15 μM): 17%
